Like-named read-outs stand apart in the source and are kept apart here. Positions of bridges follow the written chain, without caps; N, C: chain ends. Residues, ends and D or L forms follow the SMILES beside them. *: point of attachment. X6 = C[C@@H]1C[C@H]2[C@@H]3CCC4=CC(=O)C=C[C@]4(C)[C@@]3(F)[C@@H](O)C[C@]2(C)[C@@]1(O)C(=O)COC(=O)CC1(CC(=O)*)CCCC1; X5 = C[C@@H]1C[C@H]2[C@@H]3CCC4=CC(=O)C=C[C@]4(C)[C@@]3(F)[C@@H](O)C[C@]2(C)[C@@]1(O)C(=O)COC(=O)CCCCC(=O)*
Experiments:
[1] = Hydrolysis assay of peptide-drug conjugates in rat plasma (free drug by LC/MS); format: in vitro ADME; conditions: 37° C.
Experimental: Peptide-drug conjugate peptide(SEQ ID NO: 105)-DMA-dCIC was incubated in rat plasma at 37° C. Samples were removed at regular intervals, processed by solvent extraction, and analyzed by LC/MS to quantitate free dCIC. 11 time-points were measured between 5 min and 56 hours with 3 replicates per time point. The assay was repeated two times.
In order to determine hydrolysis rates, conjugates can be diluted in PBS, rat plasma, or human plasma and incubated at 37 degrees. Samples can be taken at designated time-points (e.g., 1, 2, 3, 5, 10, 15, 20, 25, 30, 45, 60, or 90 minutes and/or hours after administration). Internal standards such as triamcinolone acetonide (TAA) can be added as an internal standard, and then active agent/TAA can be extracted using acetonitrile, for example. The samples can be dried down, reconstituted, and analyzed by LC/MS. Data can be normalized using Dex AUC/TAA AUC. Percent hydrolysis can be calculated using the average ratio for active agent AUC/TAA AUC at a time point of maximal drug release. A general method can include using a lyophilized, purified peptide-drug conjugates reconstituted in DMSO following production to generate stock solution at 20 mg/mL. Each conjugate stock can be brought to 0.25 mg/mL in each hydrolysis condition (1×DPBS, human plasma and rat plasma) in triplicate and rocked at 37° C. To quantitate free active agent, 100 μl of the hydrolyzed conjugate solution can be transferred into 1 mL acetonitrile at 4° C. at which time all plasma proteins and intact conjugates can precipitate. This can be performed repeatedly to generate a series of time points (0 hr, 0.5 hr, 1 hr, 2 hr, 4 hr, 6 hr, 8 hr, 24 hr, 32 hr). The acetonitrile solution can be spun at 17,000 g for 5 minutes, and the supernatant removed and added to a 96 well block. The pellet can then be resuspended in 500 μl acetonitrile and re-pelleted as before. The supernatant can be removed and added to the same well in the block. Samples can be prepared for analysis by drying under a nitrogen stream followed by reconstitution in 110 μl 45:55 ACN:Citrate 10 mM pH 5.5. To ensure optimal recovery the block can be shaken via plate shaker at 7,000 rpm for 5 minutes during the reconstitution step. Prior to LC/MS the samples can be transferred to a 96 well plate and centrifuged at 6,500 g for 15 minutes. Analysis can be performed on an Agilent 1260 Infinity series HPLC with inline 6120 single quad MS using acetonitrile, water (+0.1% TFA) gradient (shown below) on an InfinityLab Poroshell SB-C18 column. Quantification of free active agent (or drug) can be achieved through integration of active agent peaks of the TIC.
Lyophilized, purified peptide-drug conjugates were reconstituted in DMSO following production to generate stock solution at 20 mg/mL. Each conjugate stock was brought to 0.25 mg/mL in each hydrolysis condition (1×DPBS, human plasma and rat plasma) in triplicate and rocked at 37° C.
To quantitate free dexamethasone (Dex), 100 μl of the hydrolyzed conjugate solution was transferred into 1 mL acetonitrile at 4° C. at which time all plasma proteins and intact conjugates precipitated. This was performed repeatedly to generate a series of time points (0 hr, 0.5 hr, 1 hr, 2 hr, 4 hr, 6 hr, 8 hr, 24 hr, 32 hr). The corticosteroid triamcinolone acetonide (25 μl, 0.1 mg/mL in 45:55 ACN:Citrate 10 mM pH 5.5) was supplemented into the acetonitrile solution as an internal standard. The acetonitrile solution was spun at 17,000 g for 5 minutes, and the supernatant removed and added to a 96 well block. The pellet was resuspended in 500 μl acetonitrile and re-pelleted as before. The supernatant was removed and added to the same well in the block.
Samples were prepared for analysis by drying under a nitrogen stream followed by reconstitution in 110 μl 45:55 ACN:Citrate 10 mM pH 5.5. To ensure optimal recovery the block was shaken via plate shaker at 7,000 rpm for 5 minutes during the reconstitution step. […]

CIA rats = format: in vivo
Experimental: Ankle diameter measurements were recorded daily starting on induction day 9 and continuing for the duration of the study. […] Each treatment was administered on the day of enrollment (study day 0) and repeated daily for 7 days (study day 6). Rats were euthanized 3 h after the final dose and blood and organs were collected for testing.

[2] = IL-1β challenge rat model, dose-ranging study: CBC, organ weights, tolerability; format: in vivo, rats; conditions: 7 hours post administration
Experimental: IL-6 was measured in knee lavage fluid using a Luminex assay and levels were normalized to total protein in the lavage fluid (FIG. 24). Assessment of the PD inflammatory marker IL-6 in the knee joints of rats challenged with IL-1β was performed. Terminal synovial fluid was collected from all animals and analyzed by Luminex 200 for IL-6 cytokine concentrations using EMD Milliplex MAP Rat Cytokine/Chemokine Magnetic Panel ([…]-65K). […] Doses are listed as nmol/kg The masses of these doses are given below in TABLE 16. Two hours and forty-five minutes (i.e., 2.75 hrs) after administration of the test agents, animals were gently heated and blood was drawn from the tail vein for CBC analysis. Animals were then anesthetized with inhaled isoflurane and injected with 30 ng of IL-1β into the right knee (except for no IL-1β group). Four hours after administration of IL-1β (seven hours after administration of test agent) the animals were euthanized. Blood was drawn for a second CBC analysis and the right knee was lavaged for detection of IL-6 in the lavage fluid using a Luminex assay. Thymus and spleen were harvested and their organ weights determined.
In the same animals for which IL-6 secretion was measured, CBC data (e.g., lymphocyte counts) were also analyzed (FIG. 25) at an early time-point, 2.75 hrs post administration of the test article (FIG. 25A), and at euthanasia 7 hrs post administration (FIG. 25B). All treatments were administered as described above for the measurement of IL-6 secretion.
All treatments and test articles were administered as described above, except for an additional treatment group that received 510 nmol/kg of the peptide-drug conjugate peptide(SEQ ID NO: 105)-DMA-dCIC.

[3] = in rat plasma, free Dex, read-out: Hydrolysis half-life (converted)
[4] = 0.05 mg/kg daily for 7 days, study day 6

Compound	half-life at 0.25 mg/mL ([1]; Rat Plasma, release of free Dex, time points to 32 hr, read-out: Half-life (hours) as measured in the hydrolysis experiments (converted))	half-life at 0.25 mg/mL [1, 3]	ankle diameter on study day 6 versus day 0, compared to vehicle (CIA rats; 0.05 mg/kg)	plasma lymphocyte counts as compared to vehicle (CIA rats; [4])	spleen weight as compared to vehicle (CIA rats; [4])	thymus weight as compared to vehicle (CIA rats; [4])	ankle inflammation (CIA rats; highest dose of 0.05 mg/kg daily for 7 days)	ankle inflammation (CIA rats; lower doses (0.001, 0.005, 0.01 mg/kg) daily for 7 days)	spleen and thymus weights at euthanasia [2]
CC[C@H](C)[C@@H]1NC(=O)[C@@H]2CSSC[C@H](NC(=O)[C@H](CCCNC(=N)N)NC(=O)[C@@H](NC(=O)[C@H](CC(N)=O)NC(=O)[C@@H](NC(=O)[C@@H]3CCCN3C(=O)[C@@H](NC(=O)CNC(=O)[C@H](CO)NC(=O)CNC(=O)CCCCC(=O)OCC(=O)[C@@]3(O)[C@H](C)C[C@H]4[C@@H]5CCC6=CC(=O)C=C[C@]6(C)[C@@]5(F)[C@@H](O)C[C@@]43C)C(C)C)[C@@H](C)CC)C(C)C)C(=O)N[C@@H](CCCNC(=N)N)C(=O)NCC(=O)N[C@@H](CO)C(=O)N[C@@H](CCCNC(=N)N)C(=O)N[C@@H](CC(=O)O)C(=O)N[C@H]3CSSC[C@H](NC(=O)[C@H](CCCNC(=N)N)NC(=O)[C@H](CO)NC(=O)[C@H](CC(N)=O)NC1=O)C(=O)N[C@@H](Cc1c[nH]cn1)C(=O)N[C@H](C(=O)N[C@H](C(=O)N1CCC[C@H]1C(=O)O)[C@@H](C)O)CSSC[C@H](NC(=O)[C@@H]1CCCN1C(=O)[C@H](CC(=O)O)NC(=O)[C@H](CC(C)C)NC3=O)C(=O)N[C@@H](CCCNC(=N)N)C(=O)N[C@@H](CCCNC(=N)N)C(=O)N[C@@H](C)C(=O)NCC(=O)N[C@@H](CCSC)C(=O)N[C@@H](CCCNC(=N)N)C(=O)N[C@@H](Cc1ccccc1)C(=O)NCC(=O)N[C@@H](CCCNC(=N)N)C(=O)N2 [Compound 24, Peptide(SEQ ID NO: 105)-adipic acid-Dex] (X5-GSGVPINVRCRGSRDCLDPCRRAGMRFGRCINSRCHCTP-OH; disulfide 10-30, 16-35, 20-37 (inferred); C-terminus assumed)	2.8 h	2.6 h							
CC[C@H](C)[C@@H]1NC(=O)[C@@H]2CSSC[C@H](NC(=O)[C@H](CCCNC(=N)N)NC(=O)[C@@H](NC(=O)[C@H](CC(N)=O)NC(=O)[C@@H](NC(=O)[C@@H]3CCCN3C(=O)[C@@H](NC(=O)CNC(=O)[C@H](CO)NC(=O)CNC(=O)CC3(CC(=O)OCC(=O)[C@@]4(O)[C@H](C)C[C@H]5[C@@H]6CCC7=CC(=O)C=C[C@]7(C)[C@@]6(F)[C@@H](O)C[C@@]54C)CCCC3)C(C)C)[C@@H](C)CC)C(C)C)C(=O)N[C@@H](CCCNC(=N)N)C(=O)NCC(=O)N[C@@H](CO)C(=O)N[C@@H](CCCNC(=N)N)C(=O)N[C@@H](CC(=O)O)C(=O)N[C@H]3CSSC[C@H](NC(=O)[C@H](CCCNC(=N)N)NC(=O)[C@H](CO)NC(=O)[C@H](CC(N)=O)NC1=O)C(=O)N[C@@H](Cc1c[nH]cn1)C(=O)N[C@H](C(=O)N[C@H](C(=O)N1CCC[C@H]1C(=O)O)[C@@H](C)O)CSSC[C@H](NC(=O)[C@@H]1CCCN1C(=O)[C@H](CC(=O)O)NC(=O)[C@H](CC(C)C)NC3=O)C(=O)N[C@@H](CCCNC(=N)N)C(=O)N[C@@H](CCCNC(=N)N)C(=O)N[C@@H](C)C(=O)NCC(=O)N[C@@H](CCSC)C(=O)N[C@@H](CCCNC(=N)N)C(=O)N[C@@H](Cc1ccccc1)C(=O)NCC(=O)N[C@@H](CCCNC(=N)N)C(=O)N2 [Compound 26, Peptide(SEQ ID NO: 105)-3,3,-tetramethylene-glutaric acid-Dex] (X6-GSGVPINVRCRGSRDCLDPCRRAGMRFGRCINSRCHCTP-OH; disulfide 10-30, 16-35, 20-37 (inferred); C-terminus assumed)		1.1 h							
C[C@@H]1C[C@H]2[C@@H]3CCC4=CC(=O)C=C[C@]4(C)[C@@]3(F)[C@@H](O)C[C@]2(C)[C@@]1(O)C(=O)COP(=O)(O)O [DexSP, Dexamethasone sodium phosphate, reference compound]			statistically different than vehicle	significantly reduced	significantly reduced	significantly reduced	effective at reducing ankle inflammation	indistinguishable from vehicle	reduction in the weight of both organs

From patent US20210252159A1, “CONJUGATES OF CARTILAGE-HOMING PEPTIDES” (priority 2018, published 2021)
